Data from ChEMBL document CHEMBL3734667 (Bioorg Med Chem, 2015).
Active and inactive are the calls of the source. No cut-off for these calls is given here.

What was measured:
[1] = test system: Bovine viral diarrhea virus 1; test: Antiviral activity against BVDV infected in MDBK cells assessed as inhibition of virus-induced cytopathogenicity after 3 to 4 days by MTT assay; type: functional, organism-based; settings: Bovine viral diarrhea virus isolates and strains
[2] = Selectivity index, ratio of CC50 for MDBK cells to EC50 for BVDV; parameters: species or system Bovine viral diarrhea virus 1
Poliovirus 1 = test: Antiviral activity against Human poliovirus 1 Sabin infected in african green monkey Vero76 cells assessed as inhibition of virus-induced cytopathogenicity by plaque reduction assay; type: functional, organism-based; settings: Enterovirus C, Vero 76
[3] = Cytotoxicity against human MT4 cells assessed as cell viability after 96 hrs by MTT assay; type: cell-based
[4] = Selectivity index, ratio of CC50 for african green monkey Vero76 cells to EC50 for human CVB5; parameters: species or system Coxsackievirus B5, Vero 76
Vaccinia virus = test: Antiviral activity against Vaccinia virus; type: functional, organism-based; settings: Orthopoxvirus vaccinia
[5] = Selectivity index, ratio of CC50 for african green monkey Vero76 cells to EC50 for human RSV; parameters: species or system human respiratory syncytial virus, Vero 76
[6] = test system: Vesicular stomatitis virus; test: Antiviral activity against VSV; type: functional, organism-based
[7] = Cytotoxicity against african green monkey Vero 76 cells assessed as cell viability after 48 to 96 hrs by crystal violet staining method; type: cell-based; settings: chlorocebus sabaeus
[8] = Cytotoxicity against BHK cells assessed as cell viability after 48 to 96 hrs by MTT assay; type: cell-based, Mesocricetus auratus; settings: hamster
Yellow fever virus = test: Antiviral activity against YFV infected in BHK-21 cells assessed as inhibition of virus-induced cytopathogenicity after 3 to 4 days by MTT assay; type: functional, organism-based
[9] = Cytotoxicity against MDBK cells assessed as cell viability after 48 to 96 hrs by MTT assay; type: cell-based, Bos taurus; settings: cattle
Human orthopneumovirus = test: Antiviral activity against human RSV infected in african green monkey Vero76 cells assessed as inhibition of virus-induced cytopathogenicity after 5 days by plaque reduction assay; type: functional, organism-based; settings: human respiratory syncytial virus, Vero 76, 120 h
Coxsackievirus B5 = test: Antiviral activity against human CVB5 infected in african green monkey Vero76 cells assessed as inhibition of virus-induced cytopathogenicity after 3 days by plaque reduction assay; type: functional, organism-based; settings: Enterovirus B, Vero 76, 72 h
[10] = test system: Human immunodeficiency virus 1; test: Antiviral activity against HIV-1 infected in MT4 cells assessed as inhibition of virus-induced cytopathogenicity after 4 days by MTT assay; type: functional, organism-based; settings: Human immunodeficiency virus 1, MT4, 96 h
[11] = test system: Mammalian orthoreovirus 1; test: Antiviral activity against Reo-1 virus infected in BHK-21 cells assessed as inhibition of virus-induced cytopathogenicity after 3 to 4 days by MTT assay; type: functional, cell-based; settings: Mammalian orthoreovirus 1, BHK-21
Human alphaherpesvirus 1 = test: Antiviral activity against HSV1; type: functional, organism-based
[12] = Selectivity index, ratio of CC50 for african green monkey Vero76 cells to EC50 for human Sb-1; parameters: species or system Human poliovirus 1 strain Sabin, Vero 76
[13] = Selectivity index, ratio of CC50 for BHK-21 cells to EC50 for YFV; parameters: species or system Yellow fever virus
[14] = target: T1, Peroxisome proliferator-activated receptor alpha (Homo sapiens) (UniProt Q07869); test: Agonist activity at human PPAR alpha in human HepG2 cells after 20 hrs by luciferase reporter assay; type: cell-based
T1 sequence (whole entry): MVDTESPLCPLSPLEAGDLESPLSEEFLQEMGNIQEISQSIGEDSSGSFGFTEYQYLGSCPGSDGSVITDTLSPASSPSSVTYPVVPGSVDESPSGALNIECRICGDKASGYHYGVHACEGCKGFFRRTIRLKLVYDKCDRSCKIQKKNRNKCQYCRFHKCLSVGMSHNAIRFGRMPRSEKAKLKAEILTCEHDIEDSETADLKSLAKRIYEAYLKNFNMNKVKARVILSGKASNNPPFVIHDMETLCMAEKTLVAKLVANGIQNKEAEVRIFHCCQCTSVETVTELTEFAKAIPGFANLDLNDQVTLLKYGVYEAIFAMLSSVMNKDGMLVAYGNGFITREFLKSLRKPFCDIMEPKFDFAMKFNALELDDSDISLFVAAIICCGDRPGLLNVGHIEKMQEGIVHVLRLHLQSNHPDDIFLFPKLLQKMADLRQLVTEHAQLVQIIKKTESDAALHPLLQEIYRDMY

[15] = target: T2, Peroxisome proliferator-activated receptor gamma (Homo sapiens) (UniProt P37231); test: Agonist activity at human PPAR gamma in human HepG2 cells after 20 hrs by luciferase reporter assay; type: cell-based
T2 sequence (whole entry): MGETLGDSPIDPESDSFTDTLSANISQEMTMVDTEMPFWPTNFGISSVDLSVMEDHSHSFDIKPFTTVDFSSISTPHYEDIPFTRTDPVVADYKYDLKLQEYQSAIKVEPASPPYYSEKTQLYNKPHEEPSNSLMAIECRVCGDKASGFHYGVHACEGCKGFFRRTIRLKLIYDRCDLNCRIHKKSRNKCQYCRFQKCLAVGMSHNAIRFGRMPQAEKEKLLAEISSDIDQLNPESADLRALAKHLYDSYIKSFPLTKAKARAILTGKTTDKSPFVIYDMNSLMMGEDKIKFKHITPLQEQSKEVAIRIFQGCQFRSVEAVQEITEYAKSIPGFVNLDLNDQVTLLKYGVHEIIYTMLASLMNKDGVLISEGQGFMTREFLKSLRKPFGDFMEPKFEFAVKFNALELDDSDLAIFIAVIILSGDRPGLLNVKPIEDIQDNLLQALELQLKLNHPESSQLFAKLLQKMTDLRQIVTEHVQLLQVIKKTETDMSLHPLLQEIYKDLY

| SMILES | EC50 [1] [µM] | Ratio CC50/EC50 [2] | EC50 (Poliovirus 1) [µM] | CC50 at 96 h [3] [µM] | Ratio CC50/EC50 [4] | EC50 (Vaccinia virus) [µM] | Ratio CC50/EC50 [5] | EC50 [6] [µM] | CC50 [7] [µM] | CC50 [8] [µM] | EC50 (Yellow fever virus) [µM] | CC50 [9] [µM] | EC50 (Human orthopneumovirus) [µM] | EC50 (Coxsackievirus B5) [µM] | EC50 [10] [µM] | EC50 [11] [µM] | EC50 (Human alphaherpesvirus 1) [µM] | Ratio CC50/EC50 [12] | Ratio CC50/EC50 [13] | other results |
| --- | --- | --- | --- | --- | --- | --- | --- | --- | --- | --- | --- | --- | --- | --- | --- | --- | --- | --- | --- | --- |
| CC(C)(COc1ccc(-n2nc3ccc(Cl)cc3n2)cc1)C(=O)O | 21 | 2.47 | > 100 | 94 | 23.53 | > 100 | 3.33 | > 100 | 40 | 47 | > 100 | 52 | 12 | 1.7 | > 100 | – | – | – | – | – |
| CC(=O)Nc1ccc(-n2nc3ccccc3n2)cc1 | 70 | 1.43 | > 100 | 66 | >2.5 | > 100 | – | > 100 | > 100 | > 100 | > 100 | 100 | > 100 | 40 | > 100 | 83 | – | – | – | – |
| Clc1cc2nnn(C3CCCCO3)c2cc1Cl (stereo unspecified) | > 100 | – | 60 | > 100 | – | – | – | > 100 | ≥ 100 | > 100 | > 100 | > 100 | – | – | > 100 | > 100 | > 100 | 1.67 | – | – |
| COc1ccc(-n2nc3ccc(C(F)(F)F)cc3n2)cc1 | > 100 | – | 40 | > 100 | >1.25 | > 100 | – | > 100 | > 100 | > 100 | > 100 | > 100 | > 100 | 80 | > 100 | > 100 | > 100 | >2.5 | – | – |
| Cc1cc(CCCOc2c(C)cc(-c3noc(C(F)(F)F)n3)cc2C)on1 [PLECONARIL] | – | – | 2 | – | – | – | – | – | 70 | – | – | – | – | 0.008 | – | – | – | 35 | 8750 | – |
| CC(C)(COc1ccc(-n2nc3ccccc3n2)cc1)C(=O)O | 44 | >2.27 | > 100 | > 100 | – | > 100 | 2.8 | > 100 | 70 | > 100 | > 100 | > 100 | 25 | > 100 | > 100 | – | – | – | – | Activity [14]: inactive; Activity [15]: inactive |
| FC(F)(F)c1ccc2c(c1)nnn2C[C@@H]1CCCN2CCCC[C@H]12 | > 100 | – | > 100 | > 100 | >2.63 | > 100 | >1.11 | > 100 | > 100 | > 100 | 27 | > 100 | 90 | 38 | > 100 | > 100 | > 100 | – | >3.7 | – |
| Oc1ccc(-n2nc3ccccc3n2)cc1 | 17 | >5.88 | 7 | > 100 | – | > 100 | – | > 100 | 90 | 83 | ≥ 83 | ≥ 100 | – | > 100 | > 100 | – | – | 12.86 | – | – |
| Nc1ccc(-n2nc3ccccc3n2)cc1 | 35 | 2.86 | > 100 | ≥ 100 | – | > 100 | – | > 100 | > 100 | 100 | 75 | 100 | > 100 | > 100 | > 100 | 90 | – | – | 1.33 | – |
| C#C[C@@]1(O)[C@H](O)[C@@H](CO)O[C@H]1n1ccc(N)nc1=O [2'-ETHYNYL-D-CYTIDINE] | – | >2.6 | 25 | > 100 | >3.3 | > 100 | – | > 100 | > 100 | > 100 | > 100 | > 100 | > 100 | 30 | – | > 100 | > 100 | >4 | – | – |
| O=c1cnn([C@@H]2O[C@H](CO)[C@@H](O)[C@H]2O)c(=O)[nH]1 [6-AZAURIDINE] | > 100 | – | > 100 | – | – | 11 | 16.7 | > 100 | – | > 100 | – | > 100 | 1.2 | > 100 | – | > 100 | > 100 | – | >3.8 | – |
